Data published in US11363819B2 (priority 2017, dated 2022).
Read-outs that look alike come from different tables or passages of the source.

Experiments:
[1] = test system: Digitaria insularis
Description: Field trials were carried out to test the synergy of the combination magnesium chlorate and acifluorfen for controlling Digitaria insularis. The field trials were carried out at various locations in Brazil. The percentage efficacy was calculated after 3, 14 and 28 days of applications.

[2] = test system: Cenchrus echinatus
Description: Field trials were carried out to test the synergy of the combination magnesium chlorate and acifluorfen for controlling Cenchrus echinatus. The field trials were carried out at various locations in Brazil. The percentage efficacy was calculated after 3, 14 and 21 days of applications.

[3] = test system: soybean; details: Magnesium chlorate 1600, Aciflurofen 96, combination 1600 + 96 gla/Ha
[4] = test system: soybean; details: Magnesium chlorate 1600, Aciflurofen 96, combination 1600 + 96 gla/Ha; remark: listed apart in the source
Description: Field trials were carried out to test the synergy of the combination magnesium chlorate and glufosinate-ammonium which is a protoporphyrinogen oxidase-inhibiting herbicides for desiccation in Soybean. The field trials were carried out at various locations in Brazil during spring. The percentage efficacy was calculated after 1, 4 and 7 days of applications.

[5] = test system: Euphorbia heterophylla
Description: Field trials were carried out to test the synergy of the combination magnesium chlorate and acifluorfen for controlling Euphorbia heterophylla. The field trials were carried out at various locations in Brazil. The percentage efficacy was calculated after 3, 14 and 28 days of applications.

[6] = test system: Triticum aesti; assay type: in vivo, wheat; details: Magnesium chlorate 3000, Glufosinate ammonium 1500, combination 3000 + 1500 mL/Ha
Description: (§1) The expected efficacy of a combination of magnesium chlorate and co-herbicide was calculated using the well-established Colby method.
In the Colby method, the expected (or predicted) response of a combination of herbicides is calculated by taking the product of the observed response for each individual component of the combination when applied alone divided by 100 and subtracting this value from the sum of the observed response for each component when applied alone. An unexpected enhancement in efficacy of the combination is then determined by comparing the observed response of the combination to the expected (or predicted) response as calculated from the observed response of each individual component alone. If the observed response of the combination is greater than the expected (or predicted) response, or stated conversely, if the difference between the observed and expected response is greater than zero, then the combination is said to be synergistic or unexpectedly effective. […]
(§2) The present inventors have adopted the Coby method to calculate synergy of the combination of defoliants. The % defoliation of individual defoliants was calculated and compared to the expected and observed defoliation efficacy.
The defoliation activity of the individual defoliants of the invention and their combinations were evaluated on multiple crops including wheat, soybean and cotton. […]

[7] = test system: Conyza Canadenesis; assay type: in vivo
Description: as §1
(§3) In the Colby method, the expected (or predicted) response of a combination of herbicides is calculated by taking the product of the observed response for each individual component of the combination when applied alone divided by 100 and subtracting this value from the sum of the observed response for each component when applied alone. An unexpected enhancement in efficacy of the combination is then determined by comparing the observed response of the combination to the expected (or predicted) response as calculated from the observed response of each individual component alone. If the observed response of the combination is greater than the expected (or predicted) response, or stated conversely, if the difference between the observed and expected response is greater than zero, then the combination is said to be synergistic or unexpectedly effective. (Colby, S. R., Weeds, 1967 (15), p. 20-22) The Colby method requires only a single dose of each herbicide applied alone and the mixture of both doses.
(§4) The defoliation activity of the individual defoliants of the invention and their combinations were evaluated on multiple crops including wheat, soybean and cotton. The trial was carried out in Randomized Complete Block (RCB) method, all field trials were conducted using this method. Each trial were replicated four times and conducted under GEP guidelines. Application volumes were varied for each mixture. Such field trials were carried out at various locations so as to generate independent data, the locations were chosen randomly across Brazil.
Field trials were carried out to test the synergy of the combination magnesium chlorate and glufosinate-ammonium which is a […] herbicides for controlling Conyza Canadenesis. The field trials were carried out at various locations in Brazil. The percentage efficacy was calculated after 3, 14 and 28 days of applications.

[8] = test system: soybean; assay type: in vivo; details: Magnesium chlorate 2000, Glufosinate ammonium 300, combination 2000 + 300 gla/Ha
Description: as §1, §3, §2, §4
(§5) Field trials were carried out to test the synergy of the combination magnesium chlorate and glufosinate-ammonium which is a ESPS inhibitor herbicide for desiccation in Soybean. The field trials were carried out at various locations in Brazil during spring. The percentage efficacy was calculated after 1, 4 and 7 days of applications. The target crop for defoliation was soybean and the results are recorded in the table below: […]

[9] = test system: soybean; assay type: in vivo; details: Magnesium chlorate 1600, Glufosinate ammonium 240, combination 1600 + 240 mL/Ha
Description: as §1, §3, §2, §4
as §5, with “1 and” for “1,”, “4” for “4 and 7”

[10] = Magnesium chlorate 1200, Aciflurofen 72, combination 1200 + 72 gla/Ha
[11] = Magnesium chlorate 1600, Aciflurofen 96, combination 1600 + 96 gla/Ha
[12] = Magnesium chlorate 2000, Aciflurofen 120, combination 2000 + 120 gla/Ha
[13] = Magnesium chlorate 1200, Glufosinate 180, combination 1200 + 180 gla/Ha
[14] = Magnesium chlorate 1600, Glufosinate 240, combination 1600 + 240 gla/Ha
[15] = Magnesium chlorate 2000, Glufosinate 300, WG formulation 1600 + 300 gla/Ha

O=C(O)c1cc(Oc2ccc(C(F)(F)F)cc2Cl)ccc1[N+](=O)[O-] [Aciflurofen, acifluorfen]
% control at 3 DAA Actual [1, 10]: 7.7%
% control at 3 DAA Actual [1, 11]: 28.3%
% control at 3 DAA Actual [1, 12]: 31.7%
% control at 14 DAA Actual [1, 10]: 38.3%
% control at 14 DAA Actual [1, 11]: 78.3%
% control at 14 DAA Actual [1, 12]: 87%
% control at 28 DAA Actual [1, 10]: 81.7%
% control at 28 DAA Actual [1, 11]: 98.7%
% control at 28 DAA Actual [1, 12]: 95.3%
% control at 3 DAA Actual [2, 10]: 13%
% control at 3 DAA Actual [2, 11]: 17.7%
% control at 3 DAA Actual [2, 12]: 18.3%
% control at 14 DAA Actual [2, 10]: 30%
% control at 14 DAA Actual [2, 11]: 50%
% control at 14 DAA Actual [2, 12]: 50%
% control at 21 DAA Actual [2, 10]: 50%
% control at 21 DAA Actual [2, 11]: 74.3%
% control at 21 DAA Actual [2, 12]: 61.7%
desiccation in soybean at 3 DAA Actual [3]: 91.0%
desiccation in soybean at 14 DAA Actual [3]: 10%
desiccation in soybean at 1 DAA Actual [4]: 0%
desiccation in soybean at 4 DAA Actual [4]: 11.7%
% control at 3 DAA Actual [5, 10]: 45%
% control at 3 DAA Actual [5, 11]: 56.7%
% control at 3 DAA Actual [5, 12]: 63.3%
% control at 14 DAA Actual [5, 10]: 28.3%
% control at 14 DAA Actual [5, 11]: 35.0%
% control at 14 DAA Actual [5, 12]: 50%
% control at 28 DAA Actual [5, 10]: 13.3%
% control at 28 DAA Actual [5, 11]: 31.7%
% control at 28 DAA Actual [5, 12]: 33.3%

CP(=O)(O)CCC(N)C(=O)O (centres unmarked) [Glufosinate ammonium, glufosinate-ammonium]
Defoliation in Triticum aesti at 3 DAA Actual [6]: 78%
% control at 3 DAA Actual [7, 13]: 13.3%
% control at 3 DAA Actual [7, 14]: 13.3%
% control at 3 DAA Actual [7, 15]: 63.3%
% control at 14 DAA Actual [7, 13]: 61.7%
% control at 14 DAA Actual [7, 14]: 90.7%
% control at 14 DAA Actual [7, 15]: 50%
% control at 28 DAA Actual [7, 13]: 58.3%
% control at 28 DAA Actual [7, 14]: 95%
% control at 28 DAA Actual [7, 15]: 33.3%
desiccation in soybean at 1 DAA Actual [8]: 0%
desiccation in soybean at 4 DAA Actual [8]: 30%
desiccation in soybean at 7 DAA Actual [8]: 63.3%
desiccation in soybean at 1 DAA Actual [9]: 0%
desiccation in soybean at 4 DAA Actual [9]: 18.3%

[Mg+2].[O-][Cl+2]([O-])[O-].[O-][Cl+2]([O-])[O-] [Magnesium chlorate]
% control at 3 DAA Actual [1, 10]: 6%
% control at 3 DAA Actual [1, 11]: 6%
% control at 3 DAA Actual [1, 12]: 7%
% control at 14 DAA Actual [1, 10]: 9.3%
% control at 14 DAA Actual [1, 11]: 11.7%
% control at 14 DAA Actual [1, 12]: 16%
% control at 28 DAA Actual [1, 10]: 41.7%
% control at 28 DAA Actual [1, 11]: 48.3%
% control at 28 DAA Actual [1, 12]: 31.7%
% control at 3 DAA Actual [2, 10]: 10.7%
% control at 3 DAA Actual [2, 11]: 11.3%
% control at 3 DAA Actual [2, 12]: 14%
% control at 14 DAA Actual [2, 10]: 14.3%
% control at 14 DAA Actual [2, 11]: 23.3%
% control at 14 DAA Actual [2, 12]: 30%
% control at 21 DAA Actual [2, 10]: 10.7%
% control at 21 DAA Actual [2, 11]: 12.3%
% control at 21 DAA Actual [2, 12]: 22.7%
Defoliation in Triticum aesti at 3 DAA Actual [6]: 68%
desiccation in soybean at 3 DAA Actual [3]: 84.3%
desiccation in soybean at 14 DAA Actual [3]: 60%
% control at 3 DAA Actual [7, 13]: 50%
% control at 3 DAA Actual [7, 14]: 55%
% control at 3 DAA Actual [7, 15]: 40%
% control at 14 DAA Actual [7, 13]: 51.7%
% control at 14 DAA Actual [7, 14]: 47.7%
% control at 14 DAA Actual [7, 15]: 33.3%
% control at 28 DAA Actual [7, 13]: 30%
% control at 28 DAA Actual [7, 14]: 35%
% control at 28 DAA Actual [7, 15]: 11.7%
desiccation in soybean at 1 DAA Actual [8]: 30%
desiccation in soybean at 4 DAA Actual [8]: 56.7%
desiccation in soybean at 7 DAA Actual [8]: 58.3%
desiccation in soybean at 1 DAA Actual [4]: 21.7%
desiccation in soybean at 4 DAA Actual [4]: 53.3%
% control at 3 DAA Actual [5, 10]: 31.7%
% control at 3 DAA Actual [5, 11]: 33.3%
% control at 3 DAA Actual [5, 12]: 40%
% control at 14 DAA Actual [5, 10]: 40%
% control at 14 DAA Actual [5, 11]: 35%
% control at 14 DAA Actual [5, 12]: 33.3%
% control at 28 DAA Actual [5, 10]: 23.3%
% control at 28 DAA Actual [5, 11]: 16.7%
% control at 28 DAA Actual [5, 12]: 11.7%
desiccation in soybean at 1 DAA Actual [9]: 21.7%
desiccation in soybean at 4 DAA Actual [9]: 53.3%
